{"source": "patent US6489351B1", "about": "“Condensed 4,5,6,7-tetrahydrobenzo[C]thiophenes as enhancer for cell differentation induction factor action” (Takeda Chemical Industries, Ltd., priority 1996, dated 2002)", "key": {"[1]": {"test_system": "Chondrocytes, prepared from rabbit rib cartilage", "test": "Anti-collagenase action in rabbit chondrocytes (IL-1-induced collagenase production)", "assay_type": "cell-based", "conditions": "IL-1 30 ng/ml added, 48 hours, mean±SE, control with IL-1 21.9 ± 1.7, without IL-1 0.1 ± 0.1", "protocol": "Chondrocytes, prepared from rabbit rib cartilage, were suspended in Dulbecco's MEM (DMEM) supplemented with 10% FCS, sown to 12-well plates, and cultured until a confluent state was reached. After the culture broth was removed, the cells were cultured for 48 hours in serum-free DMEM containing IL-1 (30 ng/ml) and the sample compound. The collagenase produced upon induction by IL-1 stimulation and secreted in the culture broth was activated by trypsinization; after a soybean trypsin inhibitor was added to inactivate the trypsin, activity was determined with type I collagen as the substrate. The values obtained are given in mean±SE in Table 3. The data were statistically analyzed by Student's t-test."}}}
{"smiles": "CSc1oc(C(=O)O)c2c1-c1nc(-c3ccccc3)sc1CC2", "note": "[Example 25, 4,5-dihydro-8-methylthio-2-phenylfuro[3,4-e]benzothiazole-6-carboxylic acid]", "values": [{"measurement": "Collagenase Activity (units/ml)", "setting": "[1]; compound 10^−5 M", "result": "1.8 ± 0.6", "unit": "units/ml"}, {"measurement": "Collagenase Activity (units/ml)", "setting": "[1]; compound 10^−6 M", "result": "11.0 ± 0.8", "unit": "units/ml"}, {"measurement": "melting point", "result": "206 to 207 °C (dec.)"}]}
